Counter-ions that a name gives are not always drawn.

Series [1] deals with Human gingival fibroblasts (HGF). It is filed as cell-based. Conditions: MTT, 48 h.
Experimental: Human gingival fibroblasts (HGF) in logarithmic growth active phase were selected and inoculated in 96-well plates. […] Different concentration gradients were set for each group, and 5 parallel samples were set for each concentration Untreated cells were set as blank control group. After incubation for 48 h, the old culture medium was removed, and 100 μL fresh medium containing 10% (v/v) MTT was added to each well. After incubation for another 2 h, the culture media was removed and 150 μL dimethyl sulfoxide/well was added. After shaking for 2 min, the absorbance of the solution was measured at 490 nm by using a microplate reader Varioscan Flash and cell viability was calculated.
Untreated cells were set as blank control group. After 48 h of culture, the old culture medium was removed, and 100 μL of culture medium containing 10% (v/v) MTT was added to each well. After incubation for 2 h, 150 μL DMSO was added to each well, and the absorbance at 490 nm was measured with a microplate reader for 2 min, and the cell survival rate was calculated.
The test system of the next series is Caspase-3. The experiment in a line: Determination of Caspase-3 activity. It is filed as cell-based, human. As to conditions: SW480, 1 mM, incubation 24 h, relative to blank control. The protocol: Determination of Caspase-3 activity: SW480 cells in logarithmic growth active phase were prepared into cell suspension and added into 6-well plate (4×10^5 cells/well). […] After incubation for 24 h, the old culture medium was removed and cells were collected and then centrifuged for 5 min (1200 rpm/min) at 4°C. The cells were washed with cold PBS twice, and the supernatant was sucked up as much as possible every time. 100 μL of cell lysate containing 1 mM phenylmethylsulfonyl fluoride (PMSF, protease inhibitor) was added to the collected cells, which were placed on ice for 30 min and vortex once every 5 min. […] 20 μL supernatant was taken for detection with Caspase-3 activity detection kit, and the absorbance value at A405 nm or A400 was measured by microplate reader. According to the absorbance ratio of material group cells to blank control group cells, the relative Caspase-3 activity degree was calculated.
Determination of Caspase-3 activity: SW480 cells in logarithmic growth active phase were prepared into cell suspension and added into 6-well plate (5×10^5 cells/well). […] 20 μL supernatant was taken for detection with Caspase-3 activity detection kit, and the absorbance value at A405 nm or A400 nm was measured by microplate reader. According to the absorbance ratio of material group cells to blank control group cells, the relative Caspase-3 activity degree was calculated.

The subject of series [2] is SW480 cells. The series can be described thus: Determination of superoxide anion in mitochondria. Conditions: SW480, 1 mM, incubation 4 h, laser confocal. It is filed as cell-based, human. The protocol: Determination of superoxide anion (O2^+) in mitochondria: SW480 cells in logarithmic growth active phase were prepared into cell suspension and added into 6-well plate (5×10^5 cells/well). […] After incubation for 4 h, the old culture medium was removed and 1 mL of fluorescent amine dye (50 μM) was added. After incubation for 2 h, cysteine was added to make the final concentration to be 200 μM. After incubation for 0.5 h, culture medium was removed and cells were washed with Krebs buffer for 3 times, then mitochondrial red dye was added to proceed mitochondrial staining for 30 min, and cells were washed with 37°C. medium for 3 times. Finally, the emission of fluorescent amine at 440-480 nm was detected by laser confocal to quantify […], and the emission of mitochondrial red dye at 590-650 nm was detected to locate mitochondria in cells.
Determination of superoxide anion (O2^+) in mitochondria: SW480 cells in logarithmic growth active phase were prepared into cell suspension and added into 6-well plate (5×10^5 cells/well). […] Finally, the emission of fluorescent amine at 440-480 nm was detected by laser confocal to quantify O2^+, and the emission of mitochondrial red dye at 590-650 nm was detected to locate mitochondria in cells.

Series [3] deals with SW480 cells. The series can be described thus: Determination of mitochondrial membrane potential (JC-1). The class given is cell-based, human. Conditions: SW480, 1 mM, incubation 24 h, JC-1, flow cytometry. The protocol: Determination of mitochondrial membrane potential: SW480 cells in logarithmic growth active phase were prepared into cell suspension and added into 6-well plate (5×10^5 cells/well). […] After incubation for 24 h, the old culture medium was removed, and the cells of each group were collected and centrifuged to obtain pure cells. 1 mL working solution of mitochondrial membrane potential detection kit (JC-1) was added to the collected cells, and then they were mixed thoroughly and incubated for 20 min. Then the mixture was centrifuged at 4°C. to remove working solution, and the cells were washed twice with JC-1 staining buffer (1×) on ice. Finally, 500 μL staining buffer was added to disperse the cells to obtain a cell suspension, and the change of mitochondrial membrane potential was detected by flow cytometry.
Determination of mitochondrial membrane potential: SW480 cells in logarithmic growth active phase were prepared into cell suspension and added into 6-well plate (5×10^5 cells/well). After incubation for 24 h, cells were treated with 1 mM hydroxyurea, 1 mM cLAVs and 1 mM nano-drug XI, respectively, and ntreated cells were set as blank control group. […] Finally, 500 μL staining buffer was added to disperse the cells to obtain a cell suspension, and the change of mitochondrial membrane potential was detected by flow cytometry.
(A flow cytometer gives signals particle by particle.)

Series [4] deals with Subcutaneous SW480 xenograft model. The experiment in a line: In vivo antitumor assessment, subcutaneous SW480 xenograft. Conditions: SW480 xenograft nude mice; LA/cLAVs 10 mg/kg, Hydrea 6 mg/kg; once every 3 days, 8 times. The arrangement: species or system BALB/c nude mice. The source says: Subcutaneous SW480 xenograft model was established in BALB/c nude mice (about 20 g each) of 4 weeks old.

Series [5] relates to SW480 cells. The series can be described thus: Determination of cytochrome C release (western blot). It is filed as cell-based, human. Conditions: SW480, 1 mM, incubation 24 h. How it is done:
Determination of cytochrome C release: SW480 cells in logarithmic growth active phase were prepared into cell suspension and added into 6-well plate (5×10^5 cells/well). […] After incubation for 24 h, the old culture medium was removed and cells were collected. The collected cells were centrifuged (1200 rpm/min) for 5 min at 4°C., and the supernatant was removed. The cells were washed with cold PBS twice, and die supernatant was sucked up as much as possible every lime. 100 μL of cell lysate containing 1 mM phenylmethylsulfonyl fluoride (PMSF, protease inhibitor) was added to the collected cells, which were placed on ice for 30 min and vortex once every 5 min. Then the mixture was centrifuged at 12000 rpm at 4°C. for 60 min, and the supernatant was quickly collected in another clean centrifuge tube, 20 μL supernatant was taken to analyze the content of cytochrome C in cytoplasm by western blot.
Determination of cytochrome C release: SW480 cells in logarithmic growth active phase were prepared into cell suspension and added into 6-well plate (5×10^5 cells/well). After incubation for 24 h, cells were treated with […], 1 mM cLAVs and 1 mM nano-drug XI, respectively, and untreated cells were set as blank control group. After incubation for 24 h, the old culture medium was removed and cells were collected. […]
On the technique in general: Immunoblotting shows a protein as a band on a membrane.

Consider `COc1cccc2c1C(=O)c1c(O)c3c(c(O)c1C2=O)C[C@@](O)(C(=O)CO)C[C@@H]3O[C@H]1C[C@H](N)[C@H](O)[C@H](C)O1` [DOX.HCl, doxorubicin hydrochloride], for which the “toxicity to normal cells (cell viability)” value in series [1] is given as “can kill normal cells at very low doses”.

Turning to `Nc1ccn([C@@H]2O[C@H](CO)[C@@H](O)C2(F)F)c(=O)n1` [Gem.HCl, gemcitabine hydrochloride], the “toxicity to normal cells (cell viability)” value in series [1] is “can kill normal cells at very low doses”.

`O=C(O)CCCC[C@@H]1CCSS1` [LA, (R)-(+)-lipoic acid]: in the series on Caspase-3, the “relative Caspase-3 activity” value is on record as “can stimute the relative activity of Caspase-3”. The “relative superoxide anion level in mitochondria” value with SW480 cells [2] is listed as “can induce mitochondria to produce O2^+”. In the series with SW480 cells [3], the “mitochondrial membrane potential loss” value is on record as “can induce the decrease of mitochondrial membrane potential”.

Consider `NC(=O)NO` [hydroxyurea], for which the “tumor inhibition effect (tumor volume)” value in series [4] is listed as “good tumor inhibition effect”. The “relative Caspase-3 activity” value with Caspase-3 is recorded as “can stimulate the relative activity of Caspase-3”. In addition, the “relative superoxide anion level in mitochondria” value with SW480 cells [2] is recorded as “can all induce mitochondria to produce O2^+”. Further, the “mitochondrial membrane potential loss” value in the series on SW480 cells [3] was “can all induce the decrease of mitochondrial membrane potential”. Further, in the series with SW480 cells [5], the “cytochrome C release into cytoplasm” value is given as “promote the release of cytochrome C from the mitochondria to the cytoplasm”.

For the origin of these results see patent publication US20210093607A1, “ANTITUMOR NANO-DRUG” (SICHUAN YUANNING BIOLOGICAL TECHNOLOGY CO., LTD., priority 2018, published 2021).
